Biological target: T1, Gr180 (Helicoverpa armigera, UniProt Z9OE30KH69)
T1 construct: wild type 411 residues (239 + 172 as printed); seven TM domains predicted
T1 sequence (Z9OE30KH69 1-411): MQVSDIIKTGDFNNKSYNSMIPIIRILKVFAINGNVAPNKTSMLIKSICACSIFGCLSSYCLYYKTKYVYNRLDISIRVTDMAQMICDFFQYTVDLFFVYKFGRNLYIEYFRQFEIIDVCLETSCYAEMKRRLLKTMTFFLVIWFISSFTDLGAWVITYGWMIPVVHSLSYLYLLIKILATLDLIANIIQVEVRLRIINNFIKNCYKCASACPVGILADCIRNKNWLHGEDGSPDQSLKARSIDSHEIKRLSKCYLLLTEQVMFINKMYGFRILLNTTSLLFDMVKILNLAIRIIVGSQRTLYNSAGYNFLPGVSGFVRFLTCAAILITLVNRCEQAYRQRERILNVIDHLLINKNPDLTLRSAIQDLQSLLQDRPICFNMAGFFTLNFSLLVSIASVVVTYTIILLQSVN
Assay: two-electrode voltage clamp, Xenopus oocytes
Type: cell-based
Settings: 10^-2 M coumarin in Ringer solution; holding potential -80 mV; Gr180 expressed alone; agonist

Compound: O=c1ccc2ccccc2o1 [coumarin]
- average current at 10^-2 M: 241 nA
